Test system: PC-3 xenografts
Assay: Ex vivo biodistribution in PC-3 xenograft bearing mice
Set-up: species or system BALB/C nu/nu mice
Conditions: mice bearing PC-3 xenografts, 4 h pi
From the text: Animal studies were in compliance with the European guidelines for laboratory animal protection. BALB/C nu/nu mice were used and the experimental protocols were approved by the ethics committee for animal research in Uppsala (Sweden); permit number 00473/21.
The biodistribution profiles and tumor targeting of maSSS-/SES-PEG2-RM26, labeled with Re-188 or Tc-99 m, were compared head-to-head in the same batch of animals, inoculated with the same PC-3 cells-suspension. After acclimatization, animals were inoculated subcutaneously (right hind leg) with 7 × 10^6 freshly harvested PC-3 cells per animal, in PBS. After approximately four weeks solid tumors were present at the inoculation sites and the animals were randomly divided in groups of four.
For the ex vivo biodistribution experiments animals were injected via the tail vein with 50 pmol (120 kBq for Re-188 and 60 kBq for Tc-99 m) of the radiopeptide under evaluation, in 100 µl solution in PBS supplemented with 1% w/v BSA. Animals were euthanized at 1 h and 4 h post injection (pi) and tissues / organs of interest and tumors were collected, weighted and their radioactivity content was measured on a gamma counter. Each group comprised by four animals (n = 4).
Statistical analysis was performed using GraphPad Prism, employing a two-way ANOVA test with Tuckey’s posthoc analysis.

ratio of activity uptake in caecum, Re-188 over Tc-99 m	Structure (SMILES)
1.4 fold	CC(C)C[C@H](NC(=O)C[C@H](O)[C@H](CC(C)C)NC(=O)[C@H](Cc1c[nH]cn1)NC(=O)CNC(=O)[C@@H](NC(=O)[C@H](C)NC(=O)[C@H](Cc1c[nH]c2ccccc12)NC(=O)[C@H](CCC(N)=O)NC(=O)[C@@H](Cc1ccccc1)NC(=O)COCCOCCNC(=O)[C@H](CO)NC(=O)[C@H](CO)NC(=O)[C@H](CO)NC(=O)CS)C(C)C)C(N)=O [maSSS-PEG2-RM26, mercaptoacetyl-Ser-Ser-Ser-PEG2-RM26]
2.3 fold	CC(C)C[C@H](NC(=O)C[C@H](O)[C@H](CC(C)C)NC(=O)[C@H](Cc1c[nH]cn1)NC(=O)CNC(=O)[C@@H](NC(=O)[C@H](C)NC(=O)[C@H](Cc1c[nH]c2ccccc12)NC(=O)[C@H](CCC(N)=O)NC(=O)[C@@H](Cc1ccccc1)NC(=O)COCCOCCNC(=O)[C@H](CO)NC(=O)[C@H](CCC(=O)O)NC(=O)[C@H](CO)NC(=O)CS)C(C)C)C(N)=O [maSES-PEG2-RM26, mercaptoacetyl-Ser-Glu-Ser-PEG2-RM26]

Reference: paper PMC11748620, “Evaluation of maSSS/maSES-PEG2-RM26 for their potential therapeutic use after labeling with Re-188. Could their [^99mTc]Tc-labeled counterparts be used to estimate dosimetry?” (EJNMMI Radiopharmacy and Chemistry, 2025)
